According to PubChem BioAssay (NCI):
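Briefly, cells in 96-well plates were exposed to five compound concentrations for 48 h, and endpoints were estimated by linear interpolation. Here, GI50 denotes the concentration required for 50% inhibition of growth. TGI: total growth inhibition.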

Tests used:
Assay in all cases: NCI anticancer screen, dose series, 48 h
SN12C renal = tested on: SN12C renal
PC-3 prostate = tested on: PC-3 prostate
MDA-MB-435 = tested on: MDA-MB-435
NCI-H460 lung = tested on: NCI-H460 lung
HL-60(TB) leukemia = tested on: HL-60(TB) leukemia
SF-539 CNS = tested on: SF-539 CNS
UO-31 renal = tested on: UO-31 renal
DU-145 prostate = tested on: DU-145 prostate
CCRF-CEM leukemia = tested on: CCRF-CEM leukemia
LOX IMVI melanoma = tested on: LOX IMVI melanoma
A549 NSCLC = tested on: A549 NSCLC
SF-268 CNS = tested on: SF-268 CNS
OVCAR-5 ovarian = tested on: OVCAR-5 ovarian
HCT-15 colon = tested on: HCT-15 colon
SK-OV-3 ovarian = tested on: SK-OV-3 ovarian
RXF 393 renal = tested on: RXF 393 renal
SNB-19 CNS = tested on: SNB-19 CNS
UACC-62 melanoma = tested on: UACC-62 melanoma
U251 CNS = tested on: U251 CNS
RPMI-8226 leukemia = tested on: RPMI-8226 leukemia
COLO 205 colon = tested on: COLO 205 colon
SK-MEL-28 melanoma = tested on: SK-MEL-28 melanoma
OVCAR-4 ovarian = tested on: OVCAR-4 ovarian
KM12 colon = tested on: KM12 colon
SF-295 CNS = tested on: SF-295 CNS
M14 melanoma = tested on: M14 melanoma
HT29 colon = tested on: HT29 colon
UACC-257 melanoma = tested on: UACC-257 melanoma
SK-MEL-2 melanoma = tested on: SK-MEL-2 melanoma
SNB-75 CNS = tested on: SNB-75 CNS
K-562 leukemia = tested on: K-562 leukemia
MOLT-4 leukemia = tested on: MOLT-4 leukemia
SW-620 colon = tested on: SW-620 colon
TK-10 renal = tested on: TK-10 renal
NCI/ADR-RES ovarian = tested on: NCI/ADR-RES ovarian
ACHN renal = tested on: ACHN renal
HOP-92 NSCLC = tested on: HOP-92 NSCLC
786-0 renal = tested on: 786-0 renal
OVCAR-8 ovarian = tested on: OVCAR-8 ovarian
SR leukemia = tested on: SR leukemia
HCT-116 colon = tested on: HCT-116 colon
CAKI-1 renal = tested on: CAKI-1 renal
EKVX NSCLC = tested on: EKVX NSCLC
MDA-MB-231 breast = tested on: MDA-MB-231 breast
T-47D breast = tested on: T-47D breast
HS 578T breast = tested on: HS 578T breast
HOP-62 NSCLC = tested on: HOP-62 NSCLC
MCF7 breast = tested on: MCF7 breast
OVCAR-3 ovarian = tested on: OVCAR-3 ovarian
MALME-3M melanoma = tested on: MALME-3M melanoma
HCC-2998 colon = tested on: HCC-2998 colon
SK-MEL-5 melanoma = tested on: SK-MEL-5 melanoma
NCI-H522 lung = tested on: NCI-H522 lung
NCI-H226 lung = tested on: NCI-H226 lung
NCI-H23 lung = tested on: NCI-H23 lung

C=CC/C(=C\COP(=O)(OCc1ccc([N+](=O)[O-])o1)N(C)CCCCCl)CC/C=C(\C)CCC=C(C)C (configuration not stated)
GI50 (SN12C renal): 13.6 µM
TGI (SN12C renal): 26.4 µM
GI50 (PC-3 prostate): 12 µM
TGI (PC-3 prostate): 24.3 µM
GI50 (MDA-MB-435): 16.8 µM
TGI (MDA-MB-435): 44.1 µM
GI50 (NCI-H460 lung): 2.56 µM
TGI (NCI-H460 lung): 15.1 µM
GI50 (HL-60(TB) leukemia): 21.9 µM
TGI (HL-60(TB) leukemia): > 100 µM
GI50 (SF-539 CNS): 22.5 µM
TGI (SF-539 CNS): 39.4 µM
GI50 (UO-31 renal): 12.6 µM
TGI (UO-31 renal): 25.1 µM
GI50 (DU-145 prostate): 11.6 µM
TGI (DU-145 prostate): 23.8 µM
GI50 (CCRF-CEM leukemia): 0.0483 µM
TGI (CCRF-CEM leukemia): 15.9 µM
GI50 (LOX IMVI melanoma): 13.8 µM
TGI (LOX IMVI melanoma): 31.4 µM
GI50 (A549 NSCLC): 13.9 µM
TGI (A549 NSCLC): 26.9 µM
GI50 (SF-268 CNS): 12 µM
TGI (SF-268 CNS): 29 µM
GI50 (OVCAR-5 ovarian): 15.7 µM
TGI (OVCAR-5 ovarian): 29 µM
GI50 (HCT-15 colon): 12.8 µM
TGI (HCT-15 colon): 30.4 µM
GI50 (SK-OV-3 ovarian): 16 µM
TGI (SK-OV-3 ovarian): 30.6 µM
GI50 (RXF 393 renal): 12.4 µM
TGI (RXF 393 renal): 24.9 µM
GI50 (SNB-19 CNS): 19.5 µM
TGI (SNB-19 CNS): 34.9 µM
GI50 (UACC-62 melanoma): 13.8 µM
TGI (UACC-62 melanoma): 26.7 µM
GI50 (U251 CNS): 11 µM
TGI (U251 CNS): 23 µM
GI50 (RPMI-8226 leukemia): 4.66 µM
TGI (RPMI-8226 leukemia): 19.3 µM
GI50 (COLO 205 colon): 20.4 µM
TGI (COLO 205 colon): 43.2 µM
GI50 (SK-MEL-28 melanoma): 17.2 µM
TGI (SK-MEL-28 melanoma): 32.9 µM
GI50 (OVCAR-4 ovarian): 17.2 µM
TGI (OVCAR-4 ovarian): 39.3 µM
GI50 (KM12 colon): 9.94 µM
TGI (KM12 colon): > 100 µM
GI50 (SF-295 CNS): 0.0171 µM
TGI (SF-295 CNS): 3.21 µM
GI50 (M14 melanoma): 4.04 µM
TGI (M14 melanoma): 18.2 µM
GI50 (HT29 colon): 11.6 µM
TGI (HT29 colon): 25.5 µM
GI50 (UACC-257 melanoma): 16.5 µM
TGI (UACC-257 melanoma): 30 µM
GI50 (SK-MEL-2 melanoma): 13.6 µM
TGI (SK-MEL-2 melanoma): 26.4 µM
GI50 (SNB-75 CNS): 13.5 µM
TGI (SNB-75 CNS): 29.1 µM
GI50 (K-562 leukemia): 17.3 µM
TGI (K-562 leukemia): > 100 µM
GI50 (MOLT-4 leukemia): 8.03 µM
TGI (MOLT-4 leukemia): 36.3 µM
GI50 (SW-620 colon): 9.44 µM
TGI (SW-620 colon): 21.3 µM
GI50 (TK-10 renal): 83.8 µM
TGI (TK-10 renal): > 100 µM
GI50 (NCI/ADR-RES ovarian): 11.9 µM
TGI (NCI/ADR-RES ovarian): 24.1 µM
GI50 (ACHN renal): 15.5 µM
TGI (ACHN renal): 30.2 µM
GI50 (HOP-92 NSCLC): 14.5 µM
TGI (HOP-92 NSCLC): 27.6 µM
GI50 (786-0 renal): 13.2 µM
TGI (786-0 renal): 25.9 µM
GI50 (OVCAR-8 ovarian): 12.6 µM
TGI (OVCAR-8 ovarian): 25.1 µM
GI50 (SR leukemia): 3.46 µM
TGI (SR leukemia): 41.8 µM
GI50 (HCT-116 colon): 3.76 µM
TGI (HCT-116 colon): 18 µM
GI50 (CAKI-1 renal): 8.03 µM
TGI (CAKI-1 renal): 21.2 µM
GI50 (EKVX NSCLC): 18.9 µM
TGI (EKVX NSCLC): 35.7 µM
GI50 (MDA-MB-231 breast): 12.7 µM
TGI (MDA-MB-231 breast): 34.1 µM
GI50 (T-47D breast): 20.6 µM
TGI (T-47D breast): 53.9 µM

Cc1ncc([N+](=O)[O-])n1CCNCCCn1ccnc1[N+](=O)[O-]
TGI (SN12C renal): > 100 µM
TGI (PC-3 prostate): > 100 µM
TGI (NCI-H460 lung): > 100 µM
TGI (HL-60(TB) leukemia): > 100 µM
TGI (HS 578T breast): > 100 µM
TGI (SF-539 CNS): > 100 µM
TGI (CCRF-CEM leukemia): > 100 µM
TGI (HOP-62 NSCLC): > 100 µM
TGI (MCF7 breast): > 100 µM
TGI (OVCAR-3 ovarian): > 100 µM
TGI (A549 NSCLC): > 100 µM
TGI (SF-268 CNS): > 100 µM
TGI (MALME-3M melanoma): > 100 µM
TGI (OVCAR-5 ovarian): > 100 µM
TGI (HCT-15 colon): > 100 µM
TGI (HCC-2998 colon): > 100 µM
TGI (U251 CNS): > 100 µM
TGI (RPMI-8226 leukemia): > 100 µM
TGI (SK-MEL-5 melanoma): > 100 µM
TGI (SK-MEL-28 melanoma): > 100 µM
TGI (KM12 colon): > 100 µM
TGI (SF-295 CNS): > 100 µM
TGI (HT29 colon): > 100 µM
TGI (UACC-257 melanoma): > 100 µM
TGI (SK-MEL-2 melanoma): > 100 µM
TGI (SNB-75 CNS): > 100 µM
TGI (K-562 leukemia): > 100 µM
TGI (MOLT-4 leukemia): > 100 µM
TGI (SW-620 colon): > 100 µM
TGI (TK-10 renal): > 100 µM
TGI (786-0 renal): > 100 µM
TGI (NCI-H522 lung): > 100 µM
TGI (NCI-H226 lung): > 100 µM
TGI (OVCAR-8 ovarian): > 100 µM
TGI (SR leukemia): > 100 µM
TGI (HCT-116 colon): > 100 µM
TGI (NCI-H23 lung): > 100 µM
